The source of these data is patent US20260053767A1, “Hepatoprotective Compositions And Methods” (Jemyll, Ltd., priority 2022, published 2026).

In one experiment the test system is Wistar rats. Briefly: Study 1 (prevention): oral glucose tolerance test and HOMA-IR. The format is in vivo. The note with it: Study 1: 1% (w/vol) in drinking water with high fat-high cholesterol diet for 4 weeks. The procedure:
Study design: All animal procedures were approved by the Catholic University of Rome Institutional Animal Care Committee. The design of the studies is summarized in FIG. 18, Panels A and B. • Study 1: Twenty adult Wistar rats, aged 8-10 weeks, were included in the study. The rats were housed in individual cages at 22° C. with 12-h light cycles and had ad libitum access to food and water. Rats were fed a high-fat high-cholesterol diet (44% Carbohydrate, 14% Protein, 42% fat+0.2% Cholesterol) (Mucedola, Milan, IT) for four weeks in the presence or absence of 1% Dodecanedioic acid, sodium salt (w/vol) dissolved in the water (FIG. 18, Panel A). Body weight and food/water intake were monitored weekly. • Study 2: Twenty adult Wistar rats, aged 8-10 weeks, were included in the study. The rats were housed in individual cages at 22° C. with 12-h light cycles and had ad libitum access to food and water. Rats were fed a high-fat high-cholesterol diet (44% Carbohydrate, 14% Protein, 42% fat+0.2% Cholesterol) (Mucedola, Milan, IT). After nine weeks of diet, rats were randomly assigned to one of the following groups: Four weeks of high-fat high-cholesterol diet or four weeks of high-fat high-cholesterol diet and 1% Dodecanedioic acid, sodium salt (w/v) dissolved in the water FIG. 18, Panel B). Body weight and food/water intake were monitored weekly.
Oral Glucose Test Tolerance (OGTT): All animals underwent an OGTT at the end of the study. After an overnight fasting, the rats received a 50% D-glucose solution (1 g/kg body weight) by oral gavage. Blood samples were taken by tail bleeding and collected in EDTA tubes. All blood samples were immediately centrifuged, and plasma divided into appropriate subsamples and stored at −20° C. for further analysis. Blood glucose and was measured at 0, 20, 40, 60, 80, 100 and 120 minutes, while plasma insulin at 0, 60 and 120 minutes. Blood glucose levels were measured by glucometer (Accu-Chek, Roche Diagnostics Division, Grenzacherstrasse, CH). Plasma insulin was measured by ELISA (EMD Millipore Corporation, Billerica, MA), with a sensitivity of 0.1 ng/ml and an intra-and inter-assay precision of 1.9% and 7.6%, respectively.
DODA administration prevents the onset of insulin resistance and NASH: To test the hypothesis that DODA could prevent the development of diet-induced insulin resistance and NASH, the inventors administered 1% (w/vol) of DODA in the drinking water together with a high fat-high cholesterol diet for 4 weeks. Rats fed high fat-high cholesterol diet without the administration of DODA were included as controls.
Panels A and B. • Study 1: Twenty adult Wistar rats, aged 8-10 weeks, were included in the study. The rats were housed in individual cages at 22° C. with 12-h light cycles and had ad libitum access to food and water. Rats were fed a high fat high cholesterol diet (44% Carbohydrate, 14% Protein, 42% fat+0.2% Cholesterol) for 4 weeks in the presence or absence of 1% Dodecanedioic acid, sodium salt dissolved in the water (FIG. 25, Panel A). Body weight and food/water intake were monitored weekly. • Study 2: Twenty adult Wistar rats, aged 8-10 weeks, were included in the study. The rats were housed in individual cages at 22° C. with 12-h light cycles and had ad libitum access to food and water. Rats were fed a high fat-high cholesterol diet (44% Carbohydrate, 14% Protein, 42% fat+0.2% Cholesterol). […] Body weight and food/water intake were monitored weekly. […]

The conditions of experiment [1]: relatively large oral doses (>20 g); cited from earlier work.
The test system of experiment [2] is endothelial cells (EOMA cells). Briefly: DNA damage in endothelial cells after oxidative insult by H2O2. The format is cell-based. The note with it: 6 hours, p-value >0.100. From the text: To that end, the inventors used endothelial cells (EOMA cells) and liver cells (AML-12 cells) in vitro and quantified various markers in response to exposure of the cells to environmental challenge in the presence and absence of DDA at low concentrations. Unless indicated otherwise, the DDA concentration in the in vitro experiments was 5 mcg per microliter. More specifically, the inventors measured p-H2AX protein levels as a marker for DNA damage, PGC-1α protein levels as a marker for mitochondrial biogenesis, NAMPT enzyme levels as a marker for potential for NAD+ production, and total antioxidant capacity as a marker of cellular health. In addition, the inventors also measured global SIRT activity as a gauge of activity for all SIRT enzymes, and in particular SIRT1 enzyme levels as markers for autophagy and various beneficial processes associated with a caloric restricted diet, and SIRT3 levels as markers for mitochondrial function and longevity.
In yet a further series of experiments, the inventors also sought to confirm whether or not DDDA would have a modulatory effect in endothelial cells using the same markers and experimental conditions as noted above.
Finally, the inventors also evaluated DNA damage in endothelial cells after oxidative insult by H2O2, and exemplary results are shown in FIG. 17. […] N=5-6 plates per treatment.

“Also recorded” adds a separate entry of the source.

As to `O=C(O)CCCCCCCCCCC(=O)O` [DDDA, dodecanedioic acid], in the experiment on Wistar rats (vs controls), the “blood glucose concentrations during an oral glucose tolerance test” value is “decrease”, the “hepatic insulin resistance assessed by HOMA-IR” value was “decreased” and the “plasma insulin concentrations during an oral glucose tolerance test” value is “decrease”. For the same compound, the “diet-induced insulin resistance and NASH (overall, prevention)” value in the experiment with Wistar rats (listed as C12) is “able to prevent diet-induced insulin resistance and NASH; also recorded: prevents diet-induced insulin resistance and NASH”. In addition, the “diet-induced insulin resistance and NASH (overall, prevention)” value with Wistar rats (listed as DODA) was “able to prevent diet-induced insulin resistance and NASH; also recorded: prevents diet-induced insulin resistance and NASH”. Further, in experiment [1], the “effect on blood glucose in healthy individuals” value is “no corresponding effects” and the “effect on blood glucose in individuals diagnosed with NIDDM” value was “hypoglycemic effect”. Further, the DNA damage entry in experiment [2] is “numerically decreased DNA damage”.
